What all share (conditions): Hepatitis C virus
The nature of experiment [1]: Inhibition of NS5A in HCV genotype 4a assessed as replicon RNA levels by real time PCR based cell based assay. Further details: species or system Hepatitis C virus subtype 4a. In general terms: In antiviral work, replicon cells carry a viral genome segment that copies itself.
Experiment [2] can be described thus: Inhibition of NS5A in HCV genotype 1b assessed as replicon RNA levels by real time PCR based cell based assay. Further details: species or system Hepatitis C virus subtype 1b.
Experiment [3] in a line: Inhibition of NS5A in HCV genotype 3a assessed as replicon RNA levels by real time PCR based cell based assay. Further details: species or system Hepatitis C virus subtype 3a.
The nature of experiment [4]: Inhibition of NS5A in HCV genotype 2b assessed as replicon RNA levels by real time PCR based cell based assay. Further details: species or system Hepatitis C virus subtype 2b.
Experiment [5] can be described thus: Inhibition of NS5A in HCV genotype 1a assessed as replicon RNA levels by real time PCR based cell based assay. Further details: species or system Hepatitis C virus subtype 1a.
Experiment [6] is described as follows: Inhibition of NS5A in HCV genotype 2a assessed as replicon RNA levels by real time PCR based cell based assay. Further details: species or system Hepatitis C virus subtype 2a.

Consider `COC(=O)N[C@H](C(=O)N1CCC[C@H]1c1ncc(-c2ccc3c(c2)OC(CC(C)(C)C)n2c-3cc3cc(-c4cnc([C@@H]5CCCN5C(=O)[C@@H](NC(=O)OC)C(C)C)[nH]4)ccc32)[nH]1)C(C)C` (some centres undefined), for which the EC50 in experiment [1] is 0.02 nM; in experiment [2] it was 0.002 nM; in experiment [3], 7 nM; in experiment [4] it was 73 nM; in experiment [5], 0.004 nM; in experiment [6], 1 nM.

`COC(=O)N[C@H](C(=O)N1CCC[C@H]1c1ncc(-c2cc(F)c3c(c2)OC(C2CC2C(=O)O)n2c-3cc3cc(-c4cnc([C@@H]5CCCN5C(=O)[C@@H](NC(=O)OC)C(C)C)[nH]4)ccc32)[nH]1)C(C)C` (some centres undefined): the values for the EC50 in experiment [3], in experiment [4] and in experiment [5] were 202 nM, 525 nM and 8 nM, respectively.

`COC(=O)N[C@H](C(=O)N1CCC[C@H]1c1ncc(-c2ccc3c(c2)OC(C(C)C)n2c-3cc3cc(-c4cnc([C@@H]5CCCN5C(=O)[C@@H](NC(=O)OC)C(C)C)[nH]4)ccc32)[nH]1)C(C)C` (some centres undefined): the EC50 was determined as 0.02 nM in experiment [1]; 0.002 nM in experiment [2]; 0.8 nM in experiment [3]; 6 nM in experiment [4]; 0.002 nM in experiment [5]; 0.01 nM in experiment [6].

For `COCC1CC1C1Oc2cc(-c3cnc([C@@H]4CCCN4C(=O)[C@@H](NC(=O)OC)C(C)C)[nH]3)cc(F)c2-c2cc3cc(-c4cnc([C@@H]5CCCN5C(=O)[C@@H](NC(=O)OC)C(C)C)[nH]4)ccc3n21` (some centres undefined), the EC50 turned out to be 0.7 nM in experiment [3], 4 nM in experiment [4] and 0.009 nM in experiment [5].

For `CCCCCCC1Oc2cc(-c3cnc([C@@H]4CCCN4C(=O)[C@@H](NC(=O)OC)C(C)C)[nH]3)ccc2-c2cc3cc(-c4cnc([C@@H]5CCCN5C(=O)[C@@H](NC(=O)OC)C(C)C)[nH]4)ccc3n21` (some centres undefined), the EC50 was 0.02 nM in experiment [1]; 0.001 nM in experiment [2]; 0.2 nM in experiment [3]; 12 nM in experiment [4]; 0.001 nM in experiment [5]; 0.01 nM in experiment [6].

For `COC(=O)N[C@H](C(=O)N1CCC[C@H]1c1ncc(-c2cc(F)c3c(c2)OC(C2CC2C#N)n2c-3cc3cc(-c4cnc([C@@H]5CCCN5C(=O)[C@@H](NC(=O)OC)C(C)C)[nH]4)ccc32)[nH]1)C(C)C` (some centres undefined), the EC50 in experiment [3] turned out to be 0.06 nM; in experiment [4], 8 nM; in experiment [5], 0.005 nM.

In the case of `COC(=O)N[C@H](C(=O)N1CCC[C@H]1c1ncc(-c2cc(F)c3c(c2)OC(C2CC2C(=O)N(C)C)n2c-3cc3cc(-c4cnc([C@@H]5CCCN5C(=O)[C@@H](NC(=O)OC)C(C)C)[nH]4)ccc32)[nH]1)C(C)C` (some centres undefined), the EC50 in experiment [3] stood at 4 nM; in experiment [4] it was 9 nM; in experiment [5], 0.1 nM.

Take `COC(=O)N[C@H](C(=O)N1CCC[C@H]1c1ncc(-c2cc(F)c3c(c2)OC(C2CC2(C)C)n2c-3cc3cc(-c4cnc([C@@H]5CCCN5C(=O)[C@@H](NC(=O)OC)C(C)C)[nH]4)ccc32)[nH]1)C(C)C` (some centres undefined): the EC50 in experiment [5] came to 0.03 nM.

As to `COC(=O)N[C@H](C(=O)N1CCC[C@H]1c1ncc(-c2cc(F)c3c(c2)OC(C2CC2C)n2c-3cc3cc(-c4cnc([C@@H]5CCCN5C(=O)[C@@H](NC(=O)OC)C(C)C)[nH]4)ccc32)[nH]1)C(C)C` (some centres undefined), the half-maximal effective concentration (EC50) in experiment [3] is 0.09 nM; in experiment [4], 2 nM; in experiment [5] it was 0.006 nM.

`CNC(=O)C1CC1C1Oc2cc(-c3cnc([C@@H]4CCCN4C(=O)[C@@H](NC(=O)OC)C(C)C)[nH]3)cc(F)c2-c2cc3cc(-c4cnc([C@@H]5CCCN5C(=O)[C@@H](NC(=O)OC)C(C)C)[nH]4)ccc3n21` (some centres undefined): the EC50 in experiment [3] worked out at 10 nM; in experiment [4] it was 52 nM; in experiment [5], 1 nM.

As for `COC(=O)N[C@H](C(=O)N1CCC[C@H]1c1ncc(-c2cc(F)c3c(c2)OC([C@H]2C[C@@H]2c2ccccc2)n2c-3cc3cc(-c4cnc([C@@H]5CCCN5C(=O)[C@@H](NC(=O)OC)C(C)C)[nH]4)ccc32)[nH]1)C(C)C` (some centres undefined), the concentration for a half-maximal effect (EC50) in experiment [3] turned out to be 0.03 nM; in experiment [4], 4 nM; in experiment [5], 0.005 nM.

Consider `COC(=O)N[C@H](C(=O)N1CCC[C@H]1c1ncc(-c2ccc3c(c2)OC(CCC#N)n2c-3cc3cc(-c4cnc([C@@H]5CCCN5C(=O)[C@@H](NC(=O)OC)C(C)C)[nH]4)ccc32)[nH]1)C(C)C` (mixture of isomers), for which the EC50 in experiment [3] worked out at 1 nM; in experiment [4], 8 nM; in experiment [5], 0.03 nM.

For the molecule `CCCCCC1CC2CCC1CC2C1Oc2cc(-c3cnc([C@@H]4CCCN4C(=O)[C@@H](NC(=O)OC)C(C)C)[nH]3)ccc2-c2cc3cc(-c4cnc([C@@H]5CCCN5C(=O)[C@@H](NC(=O)OC)C(C)C)[nH]4)ccc3n21` (mixture of isomers), the EC50 in experiment [3] is > 17 nM; in experiment [4], 2 nM; in experiment [5] it was 0.02 nM.

As for `COC(=O)N[C@H](C(=O)N1CCC[C@H]1c1ncc(-c2ccc3c(c2)OC(CC2CC2)n2c-3cc3cc(-c4cnc([C@@H]5CCCN5C(=O)[C@@H](NC(=O)OC)C(C)C)[nH]4)ccc32)[nH]1)C(C)C` (mixture of isomers), the EC50 was 0.01 nM in experiment [2], 9 nM in experiment [4] and 0.01 nM in experiment [5].

As for `COC(=O)CCC1Oc2cc(-c3cnc([C@@H]4CCCN4C(=O)[C@@H](NC(=O)OC)C(C)C)[nH]3)ccc2-c2cc3cc(-c4cnc([C@@H]5CCCN5C(=O)[C@@H](NC(=O)OC)C(C)C)[nH]4)ccc3n21` (mixture of isomers), the EC50 is 4 nM in experiment [3], 9 nM in experiment [4] and 0.02 nM in experiment [5].

Take `COC(=O)N[C@H](C(=O)N1CCC[C@H]1c1ncc(-c2ccc3c(c2)OC(CC2CCCCC2)n2c-3cc3cc(-c4cnc([C@@H]5CCCN5C(=O)[C@@H](NC(=O)OC)C(C)C)[nH]4)ccc32)[nH]1)C(C)C` (mixture of isomers): the EC50 in experiment [1] is 0.04 nM; in experiment [2] it was 0.002 nM; in experiment [3], 3 nM; in experiment [5] it was 0.006 nM; in experiment [6], 0.09 nM.

For `COC(=O)N[C@H](C(=O)N1CCC[C@H]1c1ncc(-c2ccc3c(c2)OC(CC2CCCC2)n2c-3cc3cc(-c4cnc([C@@H]5CCCN5C(=O)[C@@H](NC(=O)OC)C(C)C)[nH]4)ccc32)[nH]1)C(C)C` (mixture of isomers), the 50% effective concentration (EC50) in experiment [6] was determined as 4 nM.

On to `COC(=O)N[C@H](C(=O)N1CCC[C@H]1c1ncc(-c2cc(F)c3c(c2)OC(C2CC24CCCC4)n2c-3cc3cc(-c4cnc([C@@H]5CCCN5C(=O)[C@@H](NC(=O)OC)C(C)C)[nH]4)ccc32)[nH]1)C(C)C` (some centres undefined), for which the EC50 is > 17 nM in experiment [3], > 17 nM in experiment [4] and 0.006 nM in experiment [5].

In the case of `COC(=O)N[C@H](C(=O)N1CCC[C@H]1c1ncc(-c2ccc3c(c2)OC(CCC(=O)O)n2c-3cc3cc(-c4cnc([C@@H]5CCCN5C(=O)[C@@H](NC(=O)OC)C(C)C)[nH]4)ccc32)[nH]1)C(C)C` (mixture of isomers), the EC50 in experiment [3] came out at 33 nM; in experiment [4], 124 nM; in experiment [5], 8 nM.

As for `COC(=O)N[C@H](C(=O)N1CCC[C@H]1c1ncc(-c2ccc3c(c2)OC(C2CCOCC2)n2c-3cc3cc(-c4cnc([C@@H]5CCCN5C(=O)[C@@H](NC(=O)OC)C(C)C)[nH]4)ccc32)[nH]1)C(C)C` (mixture of isomers), the EC50 in experiment [1] amounted to 0.04 nM; in experiment [2], 0.004 nM; in experiment [3], 0.8 nM; in experiment [5], 0.009 nM; in experiment [6] it was 0.03 nM.

The term EC50 denotes the concentration at which the effect is half-maximal.

For the origin of these results see ChEMBL document CHEMBL3826948, “Alkyl substituted aminal derivatives of HCV NS5A inhibitor MK-8742” (Bioorg Med Chem Lett, 2016).
